The results in this text go back to patent US9884891B2, “KISS1R receptor agonist compounds and use thereof for inducing ovulation in mammals” (INSTITUT NATIONAL DE LA RECHERCHE AGRONOMIQUE, priority 2013, dated 2018).

pEC50: −log10 of the molar value. Like-named read-outs stand apart in the source and are kept apart here. *1 amine or outer side, *2 acyl side, *3 side chain or, on linkers, in order; H or OH if unused. Where a SMILES comes first, the peptide text is derived from it. [ ]: non-standard residue; d: D form. The star is where a group is joined. PEG 5000 = polyethylene glycol (5000) attached to the Lys side chain; Glyψ(1,4-Tz)Leu = CC(C)C[C@@H](C(=O)[*:2])n1cc(CN[*:1])nn1; γGlu = O=C(O)[C@H](CCC(=O)[*:2])N[*:1]; Arg(Me) = CNC(=N)NCCC[C@H](N)C(=O)O; Palmitoyl = CCCCCCCCCCCCCCCC(=O)*

Usually pEC50 stands for −log10 of the EC50, conventionally taken in molar units.

A short description of data set [1]: Test for proteolytic degradation of the peptide compounds in ovine serum. Type of data set: in vitro ADME, ewes of the Ile de France breed. The note with it: female, Ile de France, sheep. The protocol: In order to carry out this test, blood was collected from the jugular vein of ewes of the Ile de France breed, and centrifuged. The supernatant (serum) was stored at −20° C. until use.
The degradation in this serum of the various peptide compounds in accordance with the invention and of the comparative peptide compounds is monitored over time. To this effect, each peptide compound to be analyzed and the internal calibrant (L-phenylalaninol) are dissolved in milliQ water (0.5 mM and 6.6 mM, respectively). The commercial protease inhibitor cocktail (Sigma, ref. P8340) is supplied in solution in DMSO.
The serum and the stock solutions of peptide compounds are preheated at 39° C. for 30 minutes. Each solution of peptide compound (50 μl, i.e. a final concentration in the serum of 50 μM) and the solution of internal calibrant (25 μl) are mixed with 425 μl of serum and incubated at 39° C. The proteolytic degradation kinetics of the compounds are monitored by taking a sample, at various given times, of 75 μl of the solution, which are diluted with 150 μL of acetonitrile in order to precipitate the serum proteins. The suspension obtained is centrifuged at 14 000 revolutions/min for 10 min at 4° C.
The amount of peptide compound intact after incubation is determined by integration of the area of the peak, using L-phenylalaninol as internal calibrant. It is expressed as % of the area of the peak at time t=0.
The value corresponding to 100% of intact peptide compound is obtained by mixing 420 μl of serum, 5 μl of the inhibitor cocktail and 25 μl of the phenylalaninol solution, followed by 50 μl of peptide compound, and then by immediately treating the resulting solution according to the protocol described above.

In the next data set the target is T1, human KISS1R receptor (Homo sapiens, UniProt Q969F8).
T1 construct: expressed in transfected cells
T1 sequence (Q969F8 whole entry): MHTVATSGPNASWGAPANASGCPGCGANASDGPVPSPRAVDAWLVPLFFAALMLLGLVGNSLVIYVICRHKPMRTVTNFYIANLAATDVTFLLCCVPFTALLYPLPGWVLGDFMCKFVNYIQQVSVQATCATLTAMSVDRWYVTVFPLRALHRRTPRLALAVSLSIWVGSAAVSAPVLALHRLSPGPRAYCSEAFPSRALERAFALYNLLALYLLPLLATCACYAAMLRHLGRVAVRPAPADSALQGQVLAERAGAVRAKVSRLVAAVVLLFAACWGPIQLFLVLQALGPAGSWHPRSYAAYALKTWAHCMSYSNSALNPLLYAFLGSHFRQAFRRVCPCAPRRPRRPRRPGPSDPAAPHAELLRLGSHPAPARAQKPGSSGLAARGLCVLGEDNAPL
Description: Intracellular calcium mobilization test in HEK293A cells expressing human KISS1R. Type of data set: cell-based. The note with it: for pEC50: HEK293A cells expressing human KISS1R, Fluo-4NW; for human KISS1R-stimulating power (in words): calcium mobilization, compared with Comp.1. A general note: A change in cytosolic calcium serves as a functional read-out for many receptors and channels.

The mark [2] stands for this setting: ovine serum, 39° C., 50 μM, 3 h, % of the area of the HPLC peak at time t = 0, read-out: % of peptide intact after 3 h of incubation in the serum.
[3] abbreviates: read-out: EC50, intracellular calcium mobilization of cells expressing human KISS1R (Table 2).
[4] abbreviates: compounds with serum albumin binding unit or PEG, read-out: EC50, intracellular calcium mobilization of cells expressing human KISS1R (Table 3).

Description for human KISS1R receptor: In order to carry out the in vitro tests for the activity of the peptide compounds in accordance with the invention and the comparative compounds, the HEK293A cell line (ATCC, American Type Culture Collection, Manassas, Va., USA) was stably transfected with the human KISS1R receptor (Genbank accession number: NM_032551). The pcDNA3.1 vector (Invitrogen, Cergy Pontoise, France), into which the sequence of human KISS1R has been inserted with a 5′ HA tag at position 957-2150 bp, was used for the transfection. The transfection and the selection of the clones were carried out as described in the literature (Mancini et al. 2009, and Invitrogen website).
In order to verify the agonist activity and to measure the EC50 of the peptide compounds according to the invention, the following protocol was carried out.
HEK293A cells expressing the human KISS1R receptor were seeded into a 96-well plate (μClear® black plate) at the concentration of 40 000 cells/well, and placed in an incubator at 37° C. After 48 hours, the medium was changed and the cells were incubated with the fluorescent dye Fluo-4NW, according to the instructions of the manufacturer (Molecular Probe).
After having measured the basal fluorescence, 5 μl of the 20× solution containing the test compound were added to each well (containing 95 μl) so as to obtain the desired concentration. The variations in fluorescence were recorded every 7 seconds for 5-7 minutes with a plate reader (PolarStar Optima, BMG Labtech). Activity-concentration curves were generated using the GraphPad Prism 5 software, and the EC50 of each compound was calculated by adjusting the curve to a sigmoid.

With `CC(C)C[C@H](NC(=O)CNC(=O)[C@H](Cc1ccccc1)NC(=O)[C@H](CO)NC(=O)[C@H](CC(N)=O)NC(=O)[C@H](Cc1c[nH]c2ccccc12)NC(=O)[C@H](CC(N)=O)NC(=O)[C@@H](N)Cc1ccc(O)cc1)C(=O)N[C@@H](CCCNC(=N)N)C(=O)N[C@@H](Cc1ccccc1)C(N)=O` [Comp. 2, reference compound], in data set [1] (setting [2]), the remaining at 3 h, 50 μM was less than 0.1%. For the compound `CNC(=N)NCCC[C@H](NC(=O)[C@H](CC(C)C)n1cc(CNC(=O)[C@H](Cc2ccccc2)NC(=O)[C@H](CO)NC(=O)[C@H](CC(N)=O)NC(=O)[C@H](Cc2c[nH]c3ccccc23)NC(=O)[C@H](CC(N)=O)NC(=O)[C@H](Cc2ccc(O)cc2)NC(C)=O)nn1)C(=O)N[C@@H](Cc1ccc(O)cc1)C(N)=O` [Compound C3, Ac-Tyr-Asn-Trp-Asn-Ser-Phe-GlyΨ[Tz]Leu-Arg(Me)-Tyr-NH2] (HELM PEPTIDE1{[ac].Y.N.W.N.S.F.[CC(C)C[C@@H](C(=O)[*:2])n1cc(CN[*:1])nn1].[CNC(=N)NCCC[C@H](N[*:1])C(=O)[*:2]].Y.[am]}$$$$V2.0), the pEC50 at human KISS1R receptor (setting [3]) was 10.85. For the same compound, in data set [1] (serum), the remaining at 3 h, 50 μM is 55%. With `CC(=O)N[C@@H](Cc1ccc(O)cc1)C(=O)N[C@@H](CC(N)=O)C(=O)N[C@@H](Cc1c[nH]c2ccccc12)C(=O)N[C@@H](CC(N)=O)C(=O)N[C@@H](CO)C(=O)N[C@@H](Cc1ccccc1)c1cn(Cc2cn([C@@H](CC(C)C)C(=O)N[C@@H](CCCNC(=N)N)C(=O)N[C@@H](Cc3ccc(O)cc3)C(N)=O)nn2)nn1` [Compound C5, Ac-Tyr-Asn-Trp-Asn-Ser-PheΨ[Tz]GlyΨ[Tz]Leu-Arg-Tyr-NH2], the “human KISS1R-stimulating power (in words)” value on human KISS1R receptor is “remains, however, active, although to a lesser degree”. Besides, the remaining at 3 h, 50 μM in data set [1] (serum) worked out at 51%. On to `CNC(=N)NCCC[C@H](NC(=O)[C@H](CC(C)C)n1cc(CNC(=O)[C@H](Cc2ccccc2)NC(=O)[C@@H](NC(=O)[C@H](CC(N)=O)NC(=O)[C@@H]2C[C@@H](O)CN2C(=O)[C@@H](Cc2ccc(O)cc2)NC(C)=O)[C@@H](C)O)nn1)C(=O)N[C@@H](Cc1c[nH]c2ccccc12)C(N)=O` [Compound C7, Ac-DTyr-Hyp-Asn-Thr-Phe-GlyΨ[Tz]Leu-Arg(Me)-Trp-NH2] (HELM PEPTIDE1{[ac].[dY].[Hyp].N.T.F.[CC(C)C[C@@H](C(=O)[*:2])n1cc(CN[*:1])nn1].[CNC(=N)NCCC[C@H](N[*:1])C(=O)[*:2]].W.[am]}$$$$V2.0), for which, on human KISS1R receptor (setting [3]), the pEC50 is 10.85. Further, the remaining at 3 h, 50 μM in data set [1] (serum) is 17%. In the case of `CCCCCCCCCCCCCCCC(=O)N[C@@H](CCC(=O)N[C@@H](Cc1ccc(O)cc1)C(=O)N[C@@H](CC(N)=O)C(=O)N[C@@H](Cc1c[nH]c2ccccc12)C(=O)N[C@@H](CC(N)=O)C(=O)N[C@@H](CO)C(=O)N[C@@H](Cc1ccccc1)C(=O)NCc1cn([C@@H](CC(C)C)C(=O)N[C@@H](CCCNC(=N)N)C(=O)N[C@@H](Cc2ccc(O)cc2)C(N)=O)nn1)C(=O)O` [Compound C9, γ-(N-hexadecanoyl-Glu-OH)-Tyr-Asn-Trp-Asn-Ser-Phe-GlyΨ[Tz]Leu-Arg-Tyr-NH2] (HELM PEPTIDE1{[CCCCCCCCCCCCCCCC(=O)[*:2]].[gGlu].Y.N.W.N.S.F.[CC(C)C[C@@H](C(=O)[*:2])n1cc(CN[*:1])nn1].R.Y.[am]}$$$$V2.0), the pEC50 at human KISS1R receptor (setting [4]) is greater than 12.00. With `CCCCCCCCCCCCCCCC(=O)N[C@@H](CCC(=O)N[C@@H](Cc1ccc(O)cc1)C(=O)N[C@@H](CC(N)=O)C(=O)N[C@@H](Cc1c[nH]c2ccccc12)C(=O)N[C@@H](CC(N)=O)C(=O)N[C@@H](CO)C(=O)N[C@@H](Cc1ccccc1)C(=O)NCc1cn([C@@H](CC(C)C)C(=O)N[C@@H](CCCNC(=N)N)C(=O)N[C@@H](Cc2c[nH]c3ccccc23)C(N)=O)nn1)C(=O)O` [Compound C10, γ-(N-hexadecanoyl-Glu-OH)Tyr-Asn-Trp-Asn-Ser-Phe-GlyΨ[Tz]Leu-Arg-Trp-NH2] (HELM PEPTIDE1{[CCCCCCCCCCCCCCCC(=O)[*:2]].[gGlu].Y.N.W.N.S.F.[CC(C)C[C@@H](C(=O)[*:2])n1cc(CN[*:1])nn1].R.W.[am]}$$$$V2.0), at human KISS1R receptor (setting [4]), the pEC50 is greater than 12.00. Take `CCCCCCCCCCCCCCCC(=O)N[C@@H](CCC(=O)NCCCC[C@H](NC(=O)[C@H](CC(N)=O)NC(=O)[C@H](Cc1ccc(O)cc1)NC(C)=O)C(=O)N[C@@H](CC(N)=O)C(=O)N[C@@H](CO)C(=O)N[C@@H](Cc1ccccc1)C(=O)NCc1cn([C@@H](CC(C)C)C(=O)N[C@@H](CCCNC(=N)N)C(=O)N[C@@H](Cc2ccc(O)cc2)C(N)=O)nn1)C(=O)O` [Compound C11, Ac-Tyr-Asn-Lys(γ-(N-hexadecanoyl-Glu-OH))-Asn-Ser-Phe-GlyΨ[Tz]Leu-Arg-Tyr-NH2] (HELM PEPTIDE1{[ac].Y.N.K.N.S.F.[CC(C)C[C@@H](C(=O)[*:2])n1cc(CN[*:1])nn1].R.Y.[am]}|PEPTIDE2{[CCCCCCCCCCCCCCCC(=O)[*:2]].[gGlu]}$PEPTIDE1,PEPTIDE2,4:R3-2:R2$$$V2.0): the “human KISS1R-stimulating power (in words)” value on human KISS1R receptor is reported as “remains, however, active, although to a lesser degree”. For `CCCCCCCCCCCCCCCC(=O)N[C@@H](CCC(=O)N[C@@H](Cc1ccc(O)cc1)C(=O)N[C@@H](CC(N)=O)C(=O)N[C@@H](Cc1c[nH]c2ccccc12)C(=O)N[C@@H](CC(N)=O)C(=O)N[C@@H](CO)C(=O)N[C@@H](Cc1ccccc1)C(=O)NCc1cn([C@@H](CC(C)C)C(=O)N[C@@H](CCCNC(=N)NC)C(=O)N[C@@H](Cc2ccc(O)cc2)C(N)=O)nn1)C(=O)O` [Compound C12, γ-(N-hexadecanoyl-Glu-OH)Tyr-Asn-Trp-Asn-Ser-Phe-GlyΨ[Tz]Leu-Arg(Me)-Tyr-NH2] ({Palmitoyl-γGlu}-YNWNSF[Glyψ(1,4-Tz)Leu][Arg(Me)]Y-NH2), the pEC50 at human KISS1R receptor (setting [4]) was greater than 12.00. For the compound `CCCCCCCCCCCCCCCC(=O)N[C@@H](CCC(=O)N[C@@H](Cc1ccc(O)cc1)C(=O)N[C@@H](CC(N)=O)C(=O)N[C@@H](Cc1c[nH]c2ccccc12)C(=O)N[C@@H](CC(N)=O)C(=O)N[C@@H](CO)C(=O)N[C@@H](Cc1ccccc1)C(=O)NCc1cn([C@@H](CC(C)C)C(=O)N[C@@H](CCCNC(=N)N)C(=O)N[C@@H](Cc2ccccc2)C(N)=O)nn1)C(=O)O` [Compound C13, γ-(N-hexadecanoyl-Glu-OH)Tyr-Asn-Trp-Asn-Ser-Phe-GlyΨ[Tz]Leu-Arg-Phe-NH2] (HELM PEPTIDE1{[CCCCCCCCCCCCCCCC(=O)[*:2]].[gGlu].Y.N.W.N.S.F.[CC(C)C[C@@H](C(=O)[*:2])n1cc(CN[*:1])nn1].R.F.[am]}$$$$V2.0), the pEC50 on human KISS1R receptor (setting [4]) is 11.00. For the compound “Ac-Tyr-Lys(PEG5000)-Trp-Asn-Ser-Phe-GlyΨ[Tz]Leu-Arg-Tyr-NH2 (Ac-YK(PEG 5000)WNSFGLRY-NH2; also: Gly7-Leu8 peptide bond replaced by 1,4-disubstituted 1,2,3-triazole) [Compound C16, PEG5000 = COCH2CH2NH(CH2CH2O)nMe, average molecular weight approximately 5000 g/mol]”, the “human KISS1R-stimulating power (in words)” value with human KISS1R receptor is “shows a power similar to the comparative compound Comp.1”. Take “H-YNWNSFGLRY-NH2 [Comp. 1, reference compound]”: the remaining at 3 h, 50 μM in data set [1] (setting [2]) is less than 0.1%.
